Values quoted from earlier work as cited in patent EP0699249B1, “METHODS FOR TREATING NON-COTTON-CONTAINING FABRICS WITH CELLULASE” (GENENCOR INTERNATIONAL, INC., priority 1994, dated 1995).

Target: CBH I and CBH II from Trichoderma longibrachiatum
Conditions: competitive inhibition of CBH components

For `O=C[C@H](O)[C@@H](O)[C@H](O[C@@H]1O[C@H](CO)[C@@H](O)[C@H](O)[C@H]1O)[C@H](O)CO` [cellobiose], which Ki is on record?
Its Ki is about 1000 µM.
